Experimental findings from US20230183808A1, “Methods of Detecting and Treating Cancers Characterized by Loss of miR15 and miR16 Expression” (priority 2020, published 2023) are described below.

One assay relates to miR-15a. In words: miR-15a expression by qRT-PCR after 5-Aza-2′-deoxycytidine treatment. Conditions: 5 µM (MEG-01, THP-1, OCI-AML3) or 2.5 µM (U-937, MV4-11), 4 days; in a few cell lines; vs untreated; FIG. 5D. Type of assay: cell-based, human. The method, then: (§1) FIGS. 5A-5F show genetic and epigenomic screening of AML cell lines. […] TBP was used as a loading control (TATA-binding protein). […] In FIGS. 5C and 5E, at least 3 clones are analyzed for each cell line. The CpG island is pictured and each vertical bar represent a single CpG (depicted by *) or a single non-CpG site. Black (CpG site) and grey (non-CpG site) squares represent methylated CpG and white squares represent unmethylated CpG.
(§2) Total RNA was isolated from human samples and cell lines using TRIzol (Invitrogen, Carlsbad, CA), following the provided instructions. For qRT-PCR, TaqMan miRNA assays (miR-15a#000389, miR-15b#000390, miR-16#000391, (Thermo Fisher Scientific, Waltham, MA)) were used to detect mature miRNAs. For all RNAs from AML patients, reverse transcription reactions were performed using the TaqMan miRNA Reverse Transcription Kit (Applied Biosystems, Foster City, CA) and a RT primer pool by pooling all miRNA-specific stem-loop primers of interest. […]
(§3) MEG-01, THP-1 and OCI-AML3 cells were treated with 5 µM 5-Aza-2′-deoxycytidine (5-Aza-dC) (Sigma-Aldrich, St. Louis, MO), whereas U-937 and MV4-11 cells were treated with 2.5 µM 5-Aza-dC. After 4 days of treatments (fresh drug was added every 24 hour), cells were harvested and total RNA was isolated and analyzed for qRT-PCR analysis. […]
(Quantitative PCR measures a nucleic acid by following its amplification.)

For the next assay, the system named is miR-15b. In words: miR-15b expression by qRT-PCR after 5-Aza-2′-deoxycytidine treatment. The assay is classed as cell-based, human. Conditions: 5 µM (MEG-01, THP-1, OCI-AML3) or 2.5 µM (U-937, MV4-11), 4 days; in a few cell lines; vs untreated; FIG. 5F. The method, then:
as §1, §2, §3

Molecules are shown by their SMILES.

For the compound `Nc1ncn([C@H]2C[C@H](O)[C@@H](CO)O2)c(=O)n1` [5-Aza-dC, 5-Aza-2′-deoxycytidine], the “expression of silenced miR-15a after treatment” value in the assay with miR-15a is “increased expression”. Moreover, in the assay on miR-15b, the “expression of silenced miR-15b after treatment” value is on record as “increased expression”.
